Measurements as given in US20260364057A1, “AMIDE COMPOUND, AND COMPOSITION AND USE THEREOF” (SIMCERE ZAIMING PHARMACEUTICAL CO., LTD., priority 2022, published 2026).

Experiments:
Human KIF18A (1-376aa) = biological target: T1, Human KIF18A (1-376aa) (Homo sapiens, UniProt Q8NI77); test: KIF18A enzyme activity assay (ADP-Glo); type: biochemical; conditions: microtubule 50 μg/mL, ATP (Km 70 μM), room temperature, 15 min, read-out: KIF18A inhibitory activity IC50
T1 construct: Human KIF18A (1-376aa) protease used in the experiments; purchased Shanghai Panchao Biotechnology Co., Ltd
T1 sequence (Q8NI77 1-376): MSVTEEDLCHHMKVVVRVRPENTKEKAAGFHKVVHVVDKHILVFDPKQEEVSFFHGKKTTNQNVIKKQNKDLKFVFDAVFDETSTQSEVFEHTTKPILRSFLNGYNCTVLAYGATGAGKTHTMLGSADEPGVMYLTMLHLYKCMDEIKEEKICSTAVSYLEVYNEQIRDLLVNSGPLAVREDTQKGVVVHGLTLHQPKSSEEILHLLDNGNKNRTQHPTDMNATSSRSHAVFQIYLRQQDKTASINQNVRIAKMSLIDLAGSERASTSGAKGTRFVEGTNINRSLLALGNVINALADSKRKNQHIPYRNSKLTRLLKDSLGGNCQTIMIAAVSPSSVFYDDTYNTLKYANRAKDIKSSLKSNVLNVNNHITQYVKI
Protocol: Test Example 1: KIF18A Enzyme Activity Assay
Based on the ADP-Glo™ Kinase Assay, the ADP amount generated in the reaction was detected to reflect the enzyme activity of KIF18A.
Human KIF18A (1-376aa) […] used in the experiments, expressed by Shanghai Panchao Biotechnology Co., Ltd., was stored at −80 °C (no more than 5 freeze-thaw cycles).
The assay kit (ADP-Glo™ Kinase Assay) was purchased from Promega (Cat. No. V9101) and stored at −30 °C. The kit detects the enzyme activity by measuring ADP generated in enzyme reaction. The KIF18A enzyme and ATP generate ADP. The remaining ATP in this reaction is consumed by the ADP-Glo reagent, while the ADP generated by the KIF18A enzyme reaction is converted back to ATP by the assay reagent. The ATP then reacts with luciferin in the presence of Ultra-Glo™ luciferase, producing luminescence. The luminescent signal is positively correlated with the activity of the KIF18A enzyme.
Compounds were each subjected to 3-fold serial dilution starting from 10 μM to obtain 10 concentration points. The compounds and pure DMSO (control) were pipetted into wells of a 384-well plate using an Echo instrument, and the total volume of compound and DMSO was 100 nL; sample concentrations of gradient dilution were obtained by the instrument based on different ratios. Preparation of a KIF18A enzyme reaction buffer: […], 10 mM MgCl2, 0.01% Pluronic F-68, 1 μM Taxol, and 50 μg/mL Microtubule. KIF18A and the enzyme reaction buffer were mixed, and then the mixed solution was added to the 384-well plate and incubated at room temperature for 15 min. ATP (Km 70 μM) was then added to the mixed solution, and the mixed solution was incubated at room temperature for 15 min. 10 μL of ADP-Glo™ Reagent was well mixed with 10 μL of the mixed solution, and the mixture was incubated at room temperature for 40 min. Finally, 20 μL of ADP-Glo™ Detection Reagent was added, and the mixture was incubated at room temperature for 30 min. The chemiluminescent signal in each well was measured using an Envision plate reader (PerkinElmer, emission wavelength: 400-700 nm). In the experiment, 1 column of wells with no compound and no enzyme (chemiluminescence value was taken as [RLU]background) and 1 column of wells with enzyme but no compound (chemiluminescence value was taken as [RLU]enzyme) were provided. The chemiluminescence value of the compound adding group was taken as [RLU]cpd. The inhibition rate of the compound on […] was calculated according to the following equation: inhibition rate (%)=([RLU]enzyme−[RLU]cpd)/([RLU]enzyme−[RLU]background)×100%, and the inhibitory activity IC50 value of the compound on the enzyme activity was calculated using a four-parameter Logistic Model method. In the following equation, x represents the logarithmic form of the concentration of compound, and f (x) represents an effect value (inhibition rate of enzyme activity at the concentration): F(x)=(A+((B−A)/(1+((C/x)^D)))). A. B, C, and D are four parameters.

OVCAR3 cells = test: Inhibition of proliferation of OVCAR-3 cells (Cell-Titer Glo); type: cell-based; conditions: Homo sapiens, OVCAR-3, 72 h, 3 days, 1000 cells/well
Description: Test Example 2. Test on Inhibition of Proliferation of OVCAR-3 Cells by Compounds of Present Disclosure
Cell and material: The human ovarian cancer cell line OVCAR3 was purchased from ATCC (Cat. No. HTB-161™), RPMI 1640 medium (Gibco #A1049101), penicillin-streptomycin (Gibco #15140122), and 0.25% Trypsin-EDTA (Gibco #25200056) were purchased from Gibco (U.S.), bovine insulin (Yeasen #40107ES60) was purchased from Yeasen, 384-well plates (Corning #CLS3765) was purchased from Corning (U.S.), and Cell-Titer Glo reagent (Promega #G7568) was purchased from Promega (U.S.).
Cell culture: OVCAR3 cells were cultured in RPMI 1640 complete medium (RPMI 1640 medium containing 20% fetal bovine serum, […] bovine insulin, and 1% penicillin-streptomycin) in an incubator (37 °C, 5% CO2), and the cells could be used in experiments when in the logarithmic growth phase.
Cell proliferation activity test: The Cell-Titer Glo reagent was used to test the compound for inhibition of proliferation of the OVCAR3 cell strain. The compound formulated with DMSO and pure DMSO (control) were each added to a 384-well plate using an Echo instrument; the compound was subjected to 3-fold serial dilution starting from 30 μM to obtain 11 concentration points, and the volume of the compound or DMSO added was 100 nL.
OVCAR3 cells were digested and resuspended in RPMI 1640 complete medium, and the suspension was added to a 384-well plate (1000 cells/50 μL/well) to be well mixed with the compound. The mixture was incubated in an incubator (37 °C, 5% CO2) for 3 days. The Cell-Titer Glo reagent was added at 25 µL/well, and the resulting mixture was well mixed by shaking and then incubated for 10 min. The Cell-Titer Glo readings were measured with a Multimode Plate Reader (brand: PerkinElmer; model: SIC-PV-018).
A negative control group (Bottom) was set, and the negative control group was medium wells with 0.2% DMSO added and was defined as 100% proliferation inhibition; the positive control group (Top) was OVCAR3 cell wells with 0.2% DMSO added.
The percent proliferation inhibition (% Inhibition) was calculated, and the curves were fit using the four-parameter equation, Y=Bottom+(Top−Bottom)/(1+(IC50/X)^HillSlope), to obtain the proliferation inhibition IC50 of the compound. • Percent inhibition: % Inhibition=(1−(Signal−Bottom)/(Top−Bottom))×100%. • Signal: Cell-Titer Glo reading of wells with compound added; • Bottom: Cell-Titer Glo reading of negative control wells; • Top: Cell-Titer Glo reading of positive control wells.

`CC1(C)Cc2cc(NC(=O)c3ccc(NS(=O)(=O)CCO)cc3N3CCC4(CC3)CC4)cc(N3CCC(F)(F)CC3)c2O1` [Compound 82] was tested, and the IC50 (Human KIF18A (1-376aa)) was under 0.2 µM and the IC50 (OVCAR3 cells) was 0.0993 µM.

`O=C(Nc1cc2c(c(N3CCC(F)(F)CC3)c1)OCC2)c1ccc(NS(=O)(=O)CCO)cc1N1CCC2(CC1)CC2` [Compound 28] showed an IC50 (Human KIF18A (1-376aa)) of under 0.2 µM and an IC50 (OVCAR3 cells) of 0.00367 µM.

In the case of `O=C(Nc1cccc2c1nc1n2CC2CCC1C2)c1ccc(NS(=O)(=O)CCO)cc1N1CCC2(CC1)CC2` (centres unmarked) [Compound 35], the IC50 (Human KIF18A (1-376aa)) is reported as under 0.2 µM and the IC50 (OVCAR3 cells) is reported as 0.088 µM.

`O=C(Nc1cc2c(c(N3CCC(F)(F)CC3)c1)CC2)c1ccc(NS(=O)(=O)CCO)cc1N1CCC2(CC1)CC2` [Compound 103] gave an IC50 (Human KIF18A (1-376aa)) of under 0.2 µM and an IC50 (OVCAR3 cells) of 0.0147 µM.

In the case of `COc1ccc(NC(=O)c2ccc(NS(=O)(=O)CCO)cc2N2CCC3(CC2)CC3)c2nc3n(c12)CCCCC3` [Compound 96], the IC50 (Human KIF18A (1-376aa)) is reported as under 0.2 µM and the IC50 (OVCAR3 cells) is reported as 0.025 µM.

With `O=C(Nc1cc2c(c(N3CCOCC3)c1)OCC2)c1ccc(NS(=O)(=O)CCO)cc1N1CCC2(CC1)CC2` [Compound 51] the IC50 (Human KIF18A (1-376aa)) was under 0.2 µM and the IC50 (OVCAR3 cells) was 0.0681 µM.

`O=C(Nc1cccn2c3c(nc12)CCCCC3)c1ccc(NS(=O)(=O)CCO)cc1N1CCC2(CC1)CC2` [Compound 29] gave an IC50 (Human KIF18A (1-376aa)) of under 0.2 µM and an IC50 (OVCAR3 cells) of 0.0698 µM.

For `O=C(Nc1cccc2c1nc1n2C2COC1C2)c1ccc(NS(=O)(=O)CCO)cc1N1CCC2(CC1)CC2` (centres unmarked) [Compound 83], the IC50 (Human KIF18A (1-376aa)) was under 0.5 µM and the IC50 (OVCAR3 cells) was 0.086 µM.

In the case of `O=C(Nc1cccc2c1nc1n2CCCCCC1)c1ccc(NS(=O)(=O)CCO)cc1N1CCC2(CC1)CC2` [Compound 61], the IC50 (Human KIF18A (1-376aa)) is reported as under 0.2 µM and the IC50 (OVCAR3 cells) is reported as 0.077 µM.

In the case of `O=C(Nc1cc2c(c(N3CCC(F)(F)CC3)c1)COC2)c1ccc(NS(=O)(=O)CCO)cc1N1CCC2(CC1)CC2` [Compound 101], the IC50 (Human KIF18A (1-376aa)) is reported as under 0.2 µM and the IC50 (OVCAR3 cells) is reported as 0.0091 µM.

Work on `O=C(Nc1cccc2c1nc1n2CCCC1)c1ccc(NS(=O)(=O)CCO)cc1N1CCC2(CC1)CC2` [Compound 12] yielded an IC50 (Human KIF18A (1-376aa)) of under 0.2 µM and an IC50 (OVCAR3 cells) of 0.0959 µM.

`CS(=O)(=O)Nc1ccc(C(=O)Nc2cn3ccnc3c(N3CCC(F)(F)CC3)n2)c(N2CCC3(CC2)CC3)c1` [Compound 105] was tested, and the IC50 (Human KIF18A (1-376aa)) was under 0.2 µM and the IC50 (OVCAR3 cells) was 0.0149 µM.

Compound `O=C(Nc1cccc2c1nc1n2CCCCC1)c1ccc(NS(=O)(=O)CCO)cc1N1CCC2(CC1)CC2` [Compound 24] has an IC50 (Human KIF18A (1-376aa)) of under 0.2 µM and an IC50 (OVCAR3 cells) of 0.052 µM.

For `O=C(Nc1cccc2c1nc1n2CC(C(F)(F)F)C1)c1ccc(NS(=O)(=O)CCO)cc1N1CCC2(CC1)CC2` (centres unmarked) [Compound 76], the IC50 (Human KIF18A (1-376aa)) was under 0.2 µM and the IC50 (OVCAR3 cells) was 0.0431 µM.

`N#Cc1ccc(NC(=O)c2ccc(NS(=O)(=O)CCO)cc2N2CCC3(CC2)CC3)c2nc3n(c12)CCCC3` [Compound 50] gave an IC50 (Human KIF18A (1-376aa)) of under 0.2 µM and an IC50 (OVCAR3 cells) of 0.0489 µM.

`O=C(Nc1cc2c(c(N3CCC(F)(F)CC3)c1)OCCC2)c1ccc(NS(=O)(=O)CCO)cc1N1CCC2(CC1)CC2` [Compound 60] showed an IC50 (Human KIF18A (1-376aa)) of under 0.2 µM and an IC50 (OVCAR3 cells) of 0.011 µM.
